According to US20160022606A1, “NOVEL THERAPY FOR PROSTATE CARCINOMA” (PELLFICURE PHARMACEUTICALS INC., priority 2013, published 2016):

Assays:
TRAMP-C2 cells = assay: Incidence of MI, AP and PY in TRAMP-C2 cells (H2B-GFP) by fluorescent microscopy; type: cell-based, mouse; conditions: for AP (×10^−3) / MI (×10^−3) / PY (×10^−3): RPMI without phenol red, no FCS
Text: At each time point, two peripheral and two central ×20 fields of the tumor are captured with a FITC filter and an integrated frame grabber. Only mitotic figures in metaphase-telophase (MI) are included in the mitotic indices to exclude the potential artifact of nuclear membrane distortion. Apoptotic/Pyknotic nuclei are defined as H2B-GFP labeled nuclei with a cross sectional area <30 μm^2. Nuclear karyorrhexis (NK), easily distinguishable by the vesicular nuclear condensation and brightness of H2BGFP, is included within this apoptotic indices.
For example, TRAMP-C2 cells (transfected with H2B-GFP) were plated at 2.08×10^4 cells/cm^2 density in complete RPMI medium (10% of heat-inactivated FCS, 10^−8 M DHT, 5 μg/ml insulin, 6 ng/ml EGF, 100 U/ml penicillin, 100 μg/ml streptomycin, 2 mM L-glutamine) and grown at 37° C. in a humidified 5% CO2 atmosphere overnight. The cells were 3× washed with PBS and medium was replaced for RPMI medium without phenol red and without FCS. One set of cells had no DHT, the other set was incubated in the presence of DHT 10^−8 M overnight. 24 h later, the medium was replaced for medium (RPMI without phenol red, no FCS) containing increasing concentrations of plumbagin in the range 0-1 μM with DHT 10^−8 M or without DHT. 24 h later the incidence of MI, AP, and PY was evaluated by fluorescent microscopy.

[1] = type: physicochemical
Description: Plumbagin was formulated as an inclusion complex with heptakis(2,6-di-O-methyl)-beta-cyclodextrin. In brief, a super-saturated solution of plumbagin in 0.1M of heptakis(2,6-di-O-methyl)-beta-cyclodextrin was stirred for 72 hours at 25+/−0.5° C. Then the mixture was filtered through a 0.2 µm nylon membrane filter. The concentration of solubilized plumbagin has been determined by UV-VIS spectroscopy (Amax(263 nm and 417 nm)).

fibrosarcomas = conditions: in vivo; cited from earlier work
[2] = test system: P388 lymphocytic leukemia; conditions: in vivo; cited from earlier work
hepatoma = conditions: in vivo; cited from earlier work
[3] = test system: hormone-refractory prostate cancer; conditions: Aziz et al., Cancer Res. 2008; cited from earlier work
tubulin [4] = conditions: Acharya et al., Biochemistry 2008; cited from earlier work
tubulin [5] = conditions: Acharya et al., Biochemistry 2008; cited from earlier work; remark: listed apart in the source
prostate carcinoma cells = conditions: plumbagin 5 umol/L; cited from earlier work

Question: For `C[C@]12CCC(=O)C[C@@H]1CC[C@@H]1[C@@H]2CC[C@]2(C)[C@@H](O)CC[C@@H]12` [DHT, dihydrotestosterone, reference compound], which “AP (×10^−3)” value (TRAMP-C2 cells; DHT 0.01 μM) is on record?
Answer: Its value is 13.8 ×10^−3.

Question: And the “MI (×10^−3)” value (TRAMP-C2 cells; DHT 0.01 μM)?
Answer: The value was 4.911 ×10^−3.

Question: And the “PY (×10^−3)” value (TRAMP-C2 cells; DHT 0.01 μM)?
Answer: Its value is 0.8681 ×10^−3.

Question: For `CC1=CC(=O)c2c(O)cccc2C1=O` [Plumbagin, 5-hydroxy-2-methylnaphthalene-1,4-dione], which “induction of cell cycle entry / mitosis compared with DHT” value (TRAMP-C2 cells; 0.6 μM of plumbagin vs DHT at 10^−8 M) is on record?
Answer: The value was “much more effectively than DHT at 10^−8 M”.

Question: And the “AP (×10^−3)” value (TRAMP-C2 cells; plumbagin 0.4 μM, 24 h)?
Answer: The value was 8.852 ×10^−3.

Question: And the “MI (×10^−3)” value (TRAMP-C2 cells; plumbagin 0.4 μM, 24 h)?
Answer: The value was 8.89 ×10^−3.

Question: What about the “PY (×10^−3)” value (TRAMP-C2 cells; plumbagin 0.4 μM, 24 h) of the same compound?
Answer: Its value is 20.495 ×10^−3.

Question: And the “AP (×10^−3)” value (TRAMP-C2 cells; plumbagin 0.6 μM, 24 h)?
Answer: Its value is 9.371 ×10^−3.

Question: What about the “MI (×10^−3)” value (TRAMP-C2 cells; plumbagin 0.6 μM, 24 h) of the same compound?
Answer: The value was 14.81 ×10^−3.

Question: And the “PY (×10^−3)” value (TRAMP-C2 cells; plumbagin 0.6 μM, 24 h)?
Answer: Its value is 16.76 ×10^−3.

Question: And the “AP (×10^−3)” value (TRAMP-C2 cells; plumbagin 0.8 μM, 24 h)?
Answer: Its value is 16.11 ×10^−3.

Question: And the “MI (×10^−3)” value (TRAMP-C2 cells; plumbagin 0.8 μM, 24 h)?
Answer: The value was 12.7 ×10^−3.

Question: What about the “PY (×10^−3)” value (TRAMP-C2 cells; plumbagin 0.8 μM, 24 h) of the same compound?
Answer: Its value is 16.73 ×10^−3.

Question: What about the “AP (×10^−3)” value (TRAMP-C2 cells; plumbagin 1 μM, 24 h) of the same compound?
Answer: Its value is 14.22 ×10^−3.

Question: What about the “MI (×10^−3)” value (TRAMP-C2 cells; plumbagin 1 μM, 24 h) of the same compound?
Answer: Its value is 7.285 ×10^−3.

Question: What about the “PY (×10^−3)” value (TRAMP-C2 cells; plumbagin 1 μM, 24 h) of the same compound?
Answer: The value was 8.244 ×10^−3.

Question: What about the “K1:1 (phase-solubility diagram analysis)” value [1] of the same compound?
Answer: The value was 485 M⁻¹.

Question: And the “ED50 anticancer effect toward fibrosarcomas” value (fibrosarcomas)?
Answer: The value was 0.75 mg/kg body weight.

Question: What about the “ED50 anticancer effect toward P388 lymphocytic leukemia” value [2] of the same compound?
Answer: The value was 4 mg/kg body weight.

Question: And the effect on hepatoma (hepatoma)?
Answer: The effect on hepatoma was “induced regression of hepatoma”.

Question: And the “effect on hormone-refractory prostate cancer” value [3]?
Answer: Its value is “inhibited growth and invasion of hormone-refractory prostate cancer”.

Question: And the tubulin binding site (tubulin [4])?
Answer: The tubulin binding site was “recognizes the colchicine binding site of tubulin”.

Question: What about the “in vitro tubulin polymerization” value (tubulin [5]) of the same compound?
Answer: The value was “inhibits in vitro tubulin polymerization”.

Question: And the “expression of PKCq, PI3K, AKT, activation of AP-1, NF-κB, Stat3” value (prostate carcinoma cells)?
Answer: Its value is “inhibit expression of multiple molecular targets”.
